Assay results from US5874442A, “Tricyclic amides useful for inhibition of G-protein function and for treatment of proliferative disease” (Schering-Plough Corporation, priority 1996, dated 1999).
Where two headings read alike, the source gives them in different places.

Tests used:
K ras NIH 3T3 = assay: Soft agar assay; assay type: cell-based; conditions: Mus musculus, NIH3T3, read-out: IC50, inhibition of human tumor cell growth, soft agar
H ras NIH 3T3 = assay: Soft agar assay; assay type: cell-based; conditions: Mus musculus, NIH3T3, read-out: IC50, inhibition of human tumor cell growth, soft agar
A549 = assay: Soft agar assay; assay type: cell-based; conditions: Homo sapiens; A549 (lung) K ras mutation; read-out: IC50, inhibition of human tumor cell growth, soft agar
Description: (§1) Anchorage-independent growth is a characteristic of tumorigenic cell lines. Human tumor cells are suspended in growth medium containing 0.3% agarose and an indicated concentration of a farnesyl transferase inhibitor. The solution is overlayed onto growth medium solidified with 0.6% agarose containing the same concentration of farnesyl transferase inhibitor as the top layer. […] After incubation, the colonies are stained by overlaying the agar with a solution of MTT (3-[4,5-dimethylthiazol-2-yl]-2,5-diphenyltetrazolium bromide, Thiazolyl blue) (1 mg/mL in PBS). Colonies are counted and the IC50's determined.

HTB 175 = assay: Soft agar assay; assay type: cell-based; conditions: Homo sapiens; HTB 175 (SCLC) ras mut. not detected; read-out: IC50, inhibition of human tumor cell growth, soft agar
Description: as §1

HTB 177 = assay: Soft agar assay; assay type: cell-based; conditions: Homo sapiens; HTB 177 (NSCLC) K ras mutation; read-out: IC50, inhibition of human tumor cell growth, soft agar
Description: as §1

[1] = system: DLD-1 (human colon carcinoma cells); assay: In vivo anti-tumor studies, subcutaneous DLD-1 tumors in athymic nu/nu mice; design: species or system athymic nu/nu female mice; conditions: Mus musculus, DLD-1, po, […], QID, 7 days per week for 4 weeks, read-out: Average % Tumor Inhibition; for inhibition in vivo at 50 mg/kg: 50 mg/kg p.o.; for inhibition in vivo at 10 mg/kg: 10 mg/kg p.o.
Description: Tumor bearing animals are selected and randomized when the tumors are established. Animals are treated with vehicle (β-cyclodextrin for i.p. or corn oil for p.o.) only or with a compound of the present invention in vehicle four times a day (QID) for 7 days per week for 4 weeks. The percent inhibition of tumor growth relative to vehicle controls is determined by tumor measurements.

[2] = system: Ras-CVLS processing in COS cells; assay: Cell-based COS cell assay: inhibition of Ras processing (Ras-CVLS); design: species or system monkey; conditions: Primates, COS
From the text: (§2) Transient expression of val^12 -Ha-Ras-CVLS and […] -Ha-Ras-CVLL in COS monkey kidney cells: Effect of farnesyl protein transferase inhibitors on Ras processing and on disordered cell growth induced by transforming Ras.
(§3) COS monkey kidney cells were transfected by electroporation with the plasmid pSV-SPORT (Gibco/BRL) containing a cDNA insert encoding either Ras-CVLS or Ras-CVLL, leading to transient overexpression of a Ras substrate for either farnesyl protein transferase or geranylgeranyl protein transferase I, respectively (see above).
Following electroporation, cells were plated into 6-well tissue culture dishes containing 1.5 ml of Dulbecco's-modified Eagle's media (GIBCO, Inc.) supplemented with 10% fetal calf serum and the appropriate farnesyl protein transferase inhibitors. After 24 hours, media was removed and fresh media containing the appropriate drugs was re-added.
48 hours after electroporation cells were examined under the microscope to monitor disordered cell growth induced by transforming Ras. Cells expressing transforming Ras become more rounded and refractile and overgrow the monolayer, reminiscent of the transformed phenotype. Cells were then photographed, washed twice with 1 ml of cold phosphate-buffered saline (PBS) and removed from the dish by scraping with a rubber policeman into 1 ml of a buffer containing 25 mM Tris, pH 8.0; 1 mM ethylenediamine tetraacetic acid; 1 mM phenylmethylsulfonyl fluoride; […]; and 0.1 mM pepstatin. Cells were lysed by homogenization and cell debris was removed by centrifugation at 2000× g for 10 min.
Cellular protein was precipitated by addition of ice-cold trichloroacetic acid and redissolved in […] of SDS-electrophoresis sample buffer. […] Proteins resolved on the gels were electroblotted onto nitrocellulose membranes for immunodetection.
After washing, membranes were incubated for one hour at room temperature with a 1:5000 dilution of secondary antibody, rabbit anti-rat lgG conjugated to horseradish peroxidase, in PBS containing 1% fetal calf serum. The presence of processed and unprocessed Ras-CVLS or Ras-CVLL was detected using a colorimetric peroxidase reagent (4-chloro-1-naphthol) as described by the manufacturer (Bio-Rad).

[3] = system: geranylgeranylation of Ras-CVLL in COS cells; assay: Cell-based COS cell assay: geranylgeranylation of Ras-CVLL; design: species or system monkey; conditions: at concentrations up to 33 μM
From the text: as §2
as §3, with “above). […]” for “above).”
Membranes were blocked by incubation overnight at 4° C. in PBS containing 2.5% dried milk and 0.5% Tween-20 and then incubated with a Ras-specific monoclonal antibody, Y13-259 (Furth, M. E., et al., (1982), Monoclonal antibodies to the p21 products of the transforming gene of Harvey murine sarcome virus and of the cellular ras gene family, J. Virol. 43:294-304), in PBS containing 1% fetal calf serum for one hour at room temperature. […] The presence of processed and unprocessed Ras-CVLS or Ras-CVLL was detected using a colorimetric peroxidase reagent (4-chloro-1-naphthol) as described by the manufacturer (Bio-Rad).

[4] = biological target: T1, farnesyl protein transferase (FPT) (Rattus norvegicus, UniProt Q02293+Q04631); assay: In vitro enzyme assay: inhibition of farnesyl protein transferase (FPT), [3H]farnesyl transfer to Ras-CVLS; assay type: biochemical
T1 construct: were partially purified from rat brain by ammonium sulfate fractionation; from tissue; host or cells: rat brain (ammonium sulfate fractionation, Q-Sepharose)
Description: (§4) 1. In vitro enzyme assays:
(§5) Inhibition of farnesyl protein transferase and geranylgeranyl protein transferase.
Human farnesyl protein transferase was also expressed in E. coli, using cDNA clones encoding both the a and b subunits. […] Human farnesyl protein transferase was partially-purified from the soluble protein fraction of E. coli as described above. […] Two forms of val^12 -Ha-Ras protein were prepared as substrates for these enzymes, differing in their carboxy terminal sequence. One form terminated in cysteine-valine-leucine-serine (Ras-CVLS) the other in cystein-valine-leucine-leucine (Ras-CVLL). Ras-CVLS is a substrate for the farnesyl protein transferase while Ras-CVLL is a substrate for geranylgeranyl protein transferase I. The cDNAs encoding these proteins were constructed so that the proteins contain an amino-terminal extension of 6 histidine residues. Both proteins were expressed in Escherichia coli and purified using metal chelate affinity chromatography. The radiolabelled isoprenyl pyrophosphate substrates, [^3 H]farnesyl pyrophosphate and [^3 H] geranylgeranyl pyrophosphate, were purchased from DuPont/New England Nuclear.
The reaction was allowed to proceed for 30 minutes at room temperature and then stopped with 0.5 ml of 4% sodium dodecyl sulfate (SDS) followed by 0.5 ml of cold 30% TCA. Samples were allowed to sit on ice for 45 minutes and precipitated Ras protein was then collected on GF/C filter paper mats using a Brandel cell harvester. […] Percent inhibition was calculated relative to the DMSO vehicle control.

[5] = biological target: T2, geranylgeranyl protein transferase (GGPT) I (Rattus norvegicus, UniProt P53610+Q04631); assay: In vitro enzyme assay: inhibition of geranylgeranyl protein transferase I (GGPT), Ras-CVLL as acceptor; assay type: biochemical
T2 construct: were partially purified from rat brain by ammonium sulfate fractionation; from tissue; host or cells: rat brain (ammonium sulfate fractionation, Q-Sepharose)
From the text: as §4, §5
Both farnesyl protein transferase (FPT) and geranylgeranyl protein transferase (GGPT) I were partially purified from rat brain by ammonium sulfate fractionation followed by Q-Sepharose (Pharmacia, Inc.) anion exchange chromatography essentially as described by Yokoyama et al (Yokoyama, K., et al., (1991), A protein geranylgeranyltransferase from bovine brain: Implications for protein prenylation specificity, Proc. Natl. Acad. Sci USA 88: 5302-5306, the disclosure of which is incorporated herein by reference thereto). Human farnesyl protein transferase was also expressed in E. coli, using cDNA clones encoding both the a and b subunits. The methods used were similar to those published (Omer, C. et al., (1993), Characterization of recombinant human farnesyl protein transferase: Cloning, expression, farnesyl diphosphate binding, and functional homology with yeast prenyl-protein transferases, Biochemistry 32:5167-5176). Human farnesyl protein transferase was partially-purified from the soluble protein fraction of E. coli as described above. The tricyclic farnesyl protein transferase inhibitors disclosed herein inhibited both human and rat enzyme with similar potencies. […]

[6] = system: T24-BAG4 human bladder carcinoma cells expressing an activated H-ras gene; assay: Cell mat assay, T24-BAG4 tumor cells; assay type: cell-based; conditions: Homo sapiens, 336 h, read-out: Tumor (T-24) IC50
Description: (§6) Compound-induced colony inhibition was assayed by addition of serial dilutions of compound directly to the growth medium 24 h after tumor cell planting, and incubating cells for an additional 14 d to allow colony formation. Assays were terminated by rinsing monolayers twice with phosphate-buffered saline (PBS), fixing the monolayers with a 1% glutaraldehyde solution in PBS, then visualizing tumor cells by staining with X-Gal (Price, J., et al., Lineage analysis in the vertebrate nervous system by retrovirus-mediated gene transfer, Proc. Natl. Acad. Sci.84, 156-160(1987)). […] Both IC50 values were obtained by determining the density of tumor cells and mat cells by visual inspection and enumeration of cells per colony and the number of colonies under the microscope.

[7] = system: DLD-1-BAG human colon carcinoma cells; assay: Cell mat assay, DLD-1-BAG tumor cells; assay type: cell-based; conditions: Homo sapiens, DLD-1, 336 h, read-out: Tumor (DLD-1) IC50
Description: as §6
(§7) Additional assays were carried out by following essentially the same procedure as described above, but with substitution of alternative indicator tumor cell lines in place of the T24-BAG cells. The assays were conducted using either DLD-1-BAG human colon carcinoma cells expressing as activated K-ras gene or SW620-BAG human colon carcinoma cells expressing an activated K-ras gene.

[8] = system: SW620-BAG human colon carcinoma cells expressing an activated K-ras gene; assay: Cell mat assay, SW620-BAG tumor cells; assay type: cell-based; conditions: Homo sapiens, SW-620, 336 h, read-out: Tumor (SW620) IC50, Mat assay, 14 d
Description: as §6, §7

[9] = system: Normal human HEPM fibroblasts; assay: Cell mat assay, normal cells (cell mat); assay type: cell-based; conditions: Homo sapiens, Fibroblast, 336 h, read-out: Normal IC50
Description: as §6

T2 sequence (P53610 whole entry, one chain of several): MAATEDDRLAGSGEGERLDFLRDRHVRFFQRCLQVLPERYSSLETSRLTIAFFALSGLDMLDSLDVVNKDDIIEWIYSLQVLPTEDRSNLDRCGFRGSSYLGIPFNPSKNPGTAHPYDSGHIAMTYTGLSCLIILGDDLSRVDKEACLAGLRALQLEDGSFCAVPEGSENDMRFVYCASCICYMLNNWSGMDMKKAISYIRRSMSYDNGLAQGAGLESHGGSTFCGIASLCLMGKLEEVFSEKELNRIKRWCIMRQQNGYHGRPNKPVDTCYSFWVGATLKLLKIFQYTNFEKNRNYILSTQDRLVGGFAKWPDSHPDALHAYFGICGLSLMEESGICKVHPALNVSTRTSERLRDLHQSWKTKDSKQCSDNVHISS

`NC(=O)N1CCC(CC(=O)N2CCC(C3c4ncc(Br)cc4CCc4cc(Cl)cc(Cl)c43)CC2)CC1` (single isomer, unassigned) [Example 18] gave an IC50 (K ras NIH 3T3) of 800 nM, an IC50 (H ras NIH 3T3) of 175 nM and an IC50 (A549) of 300 nM. It also gave an IC50 (HTB 175) of 600 nM, an IC50 (HTB 177) of 200 nM and an inhibition in vivo at 50 mg/kg ([1]; Experiment No. 1) of 73%. For the same compound, the inhibition in vivo at 10 mg/kg ([1]; Experiment No. 2) was 43%.

`O=C(Cc1cc[n+]([O-])cc1)N1CCC(=C2c3ccc(Cl)c(Br)c3CCc3cc(Br)cnc32)CC1` [Example 2] was tested, and the IC50 ([2]; Table 3, COS cells, read-out: Inhibition of Ras Processing IC50) was 250 nM, the “block of geranylgeranylation of Ras-CVLL” value [3] was “did not block the geranylgeranylation of Ras-CVLL” and the inhibition in vivo at 50 mg/kg ([1]; Experiment No. 1) was 47%. The inhibition in vivo at 10 mg/kg ([1]; Experiment No. 2) was 25%, the inhibition in vivo at 50 mg/kg ([1]; Experiment No. 3) was 52.7% and the inhibition in vivo at 10 mg/kg ([1]; Experiment No. 4) was 31.9%.

For `O=C(Cc1cc[n+]([O-])cc1)N1CCN(C2c3ccc(Cl)c(Br)c3CCc3cc(Br)cnc32)CC1` (racemic) [Example 5B], the IC50 [4] was about 3 nM, the IC50 [5] was over 300000 nM and the IC50 ([2]; read-out: Inhibition of Ras Processing IC50, Table 3, COS cells) was 50 nM. The IC50 [6] was under 1600 nM, the IC50 [7] was 3100 nM and the IC50 [8] was 10000 nM. It also gave an IC50 [9] of over 25000 nM.

In the case of `O=C(Cc1cc[n+]([O-])cc1)N1CCN(C2c3ncc(Br)cc3CCc3cccc(Cl)c32)CC1` (single isomer, unassigned) [Example 20], the IC50 [4] is reported as 6.2 nM and the IC50 [5] is reported as over 38000 nM.
